Measured values: PMC6459026 (European journal of medicinal chemistry, 2019)

Assays:
[1] = molecular target: HIV-1 RT pol (Human immunodeficiency virus type 1 group M subtype B, UniProt P04585); experiment: RT polymerase assay; format: biochemical
[2] = molecular target: HIV-1 IN (INST activity) (Human immunodeficiency virus type 1 group M subtype B, UniProt P04585); experiment: biochemical

Row | Compound | IC50 [1] | IC50 [2]
1 | Cc1ccc(C(=O)c2cc(=O)n(O)c(=O)[nH]2)cc1 [Compound 7a, 3-Hydroxy-6-(4-methylbenzoyl)pyrimidine-2,4(1H,3H)-dione] | > 10 µM | 
2 | O=C(c1ccc(C(F)(F)F)cc1)c1cc(=O)n(O)c(=O)[nH]1 [Compound 7b, 3-Hydroxy-6-(4-(trifluoromethyl)benzoyl)pyrimidine-2,4(1H,3H)-dione] | > 10 µM | 
3 | O=C(c1ccc(F)cc1)c1cc(=O)n(O)c(=O)[nH]1 [Compound 7c, 6-(4-Fluorobenzoyl)-3-hydroxypyrimidine-2,4(1H,3H)-dione] | > 10 µM | 
4 | COC(=O)c1ccc(C(=O)c2cc(=O)n(O)c(=O)[nH]2)cc1 [Compound 7d, Methyl 4-(1-hydroxy-2,6-dioxo-1,2,3,6-tetrahydropyrimidine-4-carbonyl)benzoate] | > 10 µM | 
5 | Cc1cc(C)cc(C(=O)c2cc(=O)n(O)c(=O)[nH]2)c1 [Compound 7e, 6-(3,5-Dimethylbenzoyl)-3-hydroxypyrimidine-2,4(1H,3H)-dione] | > 10 µM | 
6 | Cc1ccc(-c2ccc(C(=O)c3cc(=O)n(O)c(=O)[nH]3)cc2)cc1 [Compound 8a, 3-Hydroxy-6-(4’-methyl-[1,1’-biphenyl]-4-carbonyl)pyrimidine-2,4(1H,3H)-dione] | > 10 µM | 
7 | O=C(c1ccc(-c2ccc(C(F)(F)F)cc2)cc1)c1cc(=O)n(O)c(=O)[nH]1 [Compound 8b, 3-Hydroxy-6-(4’-(trifluoromethyl)-[1,1’-biphenyl]-4-carbonyl)pyrimidine-2,4(1H,3H)-dione] | > 10 µM | > 100 µM
8 | O=C(c1ccc(-c2ccc(F)cc2)cc1)c1cc(=O)n(O)c(=O)[nH]1 [Compound 8c, 6-(4’-Fluoro-[1,1’-biphenyl]-4-carbonyl)-3-hydroxypyrimidine-2,4(1H,3H)-dione] | > 10 µM | 
9 | COC(=O)c1ccc(-c2ccc(C(=O)c3cc(=O)n(O)c(=O)[nH]3)cc2)cc1 [Compound 8d, Methyl 4’-(1-hydroxy-2,6-dioxo-1,2,3,6-tetrahydropyrimidine-4-carbonyl)-[1,1’-biphenyl]-4-carboxylate] | > 10 µM | 
10 | Cc1cc(C)cc(-c2ccc(C(=O)c3cc(=O)n(O)c(=O)[nH]3)cc2)c1 [Compound 8e, 6-(3’,5’-Dimethyl-[1,1’-biphenyl]-4-carbonyl)-3-hydroxypyrimidine-2,4(1H,3H)-dione] | > 10 µM | 
11 | O=C(c1ccc(-c2ccccc2)cc1)c1cc(=O)n(O)c(=O)[nH]1 [Compound 8f, 6-([1,1’-Biphenyl]-4-carbonyl)-3-hydroxypyrimidine-2,4(1H,3H)-dione] | > 10 µM | 
12 | O=C(c1cccc(-c2ccccc2)c1)c1cc(=O)n(O)c(=O)[nH]1 [Compound 8g, 6-([1,1’-Biphenyl]-3-carbonyl)-3-hydroxypyrimidine-2,4(1H,3H)-dione] | > 10 µM | 
13 | COc1ccc(-c2ccc(C(=O)c3cc(=O)n(O)c(=O)[nH]3)cc2)cc1 [Compound 8h, 3-Hydroxy-6-(4’-methoxy-[1,1’-biphenyl]-4-carbonyl)pyrimidine-2,4(1H,3H)-dione] |  | > 100 µM
14 | O=C(c1ccc(-c2ccc(Cl)c(F)c2)cc1)c1cc(=O)n(O)c(=O)[nH]1 [Compound 8l, 6-(4’-Chloro-3’-fluoro-[1,1’-biphenyl]-4-carbonyl)-3-hydroxypyrimidine-2,4(1H,3H)-dione] | > 10 µM | 
15 | CCOCn1c(C(=O)c2ccc(-c3ccccc3)cc2)cc(=O)n(O)c1=O [Compound 16f, 6-([1,1’-Biphenyl]-4-carbonyl)-1-(ethoxymethyl)-3-hydroxypyrimidine-2,4(1H,3H)-dione] | > 10 µM | > 100 µM
16 | CCOCn1c(C(=O)c2cccc(-c3ccccc3)c2)cc(=O)n(O)c1=O [Compound 16g, 6-([1,1’-Biphenyl]-3-carbonyl)-1-(ethoxymethyl)-3-hydroxypyrimidine-2,4(1H,3H)-dione] | > 10 µM | > 100 µM
17 | CCOCn1c(C(C#N)c2cc(C)cc(C)c2)cc(=O)n(O)c1=O (centres unmarked) [Compound 17e, 2-(3,5-Dimethylphenyl)-2-(3-(ethoxymethyl)-1-hydroxy-2,6-dioxo-1,2,3,6-tetrahydropyrimidin-4-yl)acetonitrile] | > 10 µM | > 100 µM
18 | CCOCn1c(C(C#N)c2ccc(-c3ccccc3)cc2)cc(=O)n(O)c1=O (centres unmarked) [Compound 18f, 2-([1,1’-Biphenyl]-4-yl)-2-(3-(ethoxymethyl)-1-hydroxy-2,6-dioxo-1,2,3,6-tetrahydropyrimidin-4-yl)acetonitrile] | > 10 µM | > 100 µM
